Structures are written as SMILES.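 Where inhibition never reached the appropriate level, the endpoint shown equals the highest concentration tested. Otherwise, values were interpolated linearly from a five-concentration, 48-hour dose response in 96-well plates. The concentration for 50% growth inhibition is given as GI50. Definition used: TGI = concentration required for complete inhibition of growth.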

In PubChem BioAssay (NCI) one finds GI50 and TGI data, which are given here for 13 compounds.

Among the test systems are CCRF-CEM leukemia; HCT-116 colon; HL-60(TB) leukemia; IGROV1 ovarian; RXF 393 renal; SF-295 CNS; SN12C renal; SR leukemia; U251 CNS; UACC-257 melanoma.
Assay in all cases: NCI-60 cell line screen, 48 h

For `COc1cccc(-c2nn(-c3ccccc3)cc2-c2ccnc(NCCCNS(=O)(=O)c3cccc(F)c3)c2)c1`, the GI50 is 4.62 µM in the assay with CCRF-CEM leukemia; 3.67 µM in the assay on HCT-116 colon; 3.52 µM in the assay with HL-60(TB) leukemia; 4.96 µM in the assay on IGROV1 ovarian; 4.18 µM in the assay on RXF 393 renal; 2.94 µM in the assay with SF-295 CNS. Besides, the GI50 with SN12C renal is 5.37 µM; in the assay with SR leukemia, 2.13 µM; with U251 CNS, 4.83 µM; with UACC-257 melanoma, 5.12 µM. For the same compound, the TGI in the assay on CCRF-CEM leukemia is above 100 µM; in the assay with HCT-116 colon, above 100 µM; in the assay on HL-60(TB) leukemia, 24.7 µM; with IGROV1 ovarian it was above 100 µM; with RXF 393 renal, above 100 µM; in the assay with SF-295 CNS it was above 100 µM. The TGI in the assay with SN12C renal is above 100 µM; in the assay on SR leukemia it was 7.22 µM; in the assay with U251 CNS it was above 100 µM; in the assay on UACC-257 melanoma, 39.3 µM.
With `COc1ccccc1NC(=O)c1ccc(/C=C/C(=O)c2nccn2C)cc1`, the GI50 in the assay with CCRF-CEM leukemia is 0.669 µM; with HCT-116 colon, 0.408 µM; with HL-60(TB) leukemia, 0.547 µM; in the assay with IGROV1 ovarian it was 0.523 µM; in the assay on RXF 393 renal, 0.42 µM; with SF-295 CNS it was 0.658 µM. Also, the GI50 in the assay on SN12C renal is 0.592 µM; in the assay on SR leukemia, 0.242 µM; with U251 CNS, 0.434 µM; in the assay with UACC-257 melanoma it was 0.972 µM. For the same compound, the TGI in the assay with CCRF-CEM leukemia stood at 8.01 µM; with HCT-116 colon, 0.89 µM; in the assay on HL-60(TB) leukemia, 1.41 µM; in the assay with IGROV1 ovarian it was 1.34 µM; in the assay with RXF 393 renal, 0.857 µM; in the assay with SF-295 CNS, 1.76 µM. For the same compound, the TGI in the assay on SN12C renal worked out at 1.56 µM; with SR leukemia, 7 µM; in the assay with U251 CNS it was 1.02 µM; in the assay on UACC-257 melanoma, 10.1 µM.
With `CN1CCN(Cc2ccc(NC(=O)c3cncc(C#Cc4cnc(N)c5ccccc45)c3)cc2C(F)(F)F)CC1`, the GI50 with CCRF-CEM leukemia is 0.125 µM; with HCT-116 colon it was 0.16 µM; in the assay with HL-60(TB) leukemia, 0.165 µM; with IGROV1 ovarian it was 0.127 µM; with RXF 393 renal, 0.163 µM; in the assay on SF-295 CNS, 0.486 µM. In addition, the GI50 with SN12C renal was 0.242 µM; in the assay with SR leukemia, 0.157 µM; in the assay with U251 CNS it was 0.279 µM; with UACC-257 melanoma, 0.605 µM. Besides, the TGI was 1.44 µM in the assay on CCRF-CEM leukemia; 0.581 µM in the assay on HCT-116 colon; 0.665 µM in the assay on HL-60(TB) leukemia; 0.615 µM with IGROV1 ovarian; 0.563 µM in the assay on RXF 393 renal; 0.955 µM with SF-295 CNS. The TGI turned out to be 0.693 µM with SN12C renal, 6.63 µM in the assay on SR leukemia, 0.763 µM with U251 CNS and 1.27 µM in the assay with UACC-257 melanoma.
For the compound `CN=C1NC(=O)/C(=C/c2ccc3ncccc3c2)S1`, the GI50 in the assay on CCRF-CEM leukemia was 7.81 µM; with HCT-116 colon, 5.29 µM; with HL-60(TB) leukemia it was 8.73 µM; with IGROV1 ovarian, 8.53 µM; in the assay on RXF 393 renal, 8.08 µM; with SF-295 CNS it was 7.97 µM. The GI50 in the assay with SN12C renal was 7.7 µM; with SR leukemia, 2.14 µM; in the assay on U251 CNS, 5.19 µM; in the assay on UACC-257 melanoma, 7.18 µM. Further, the TGI in the assay on CCRF-CEM leukemia, in the assay with HCT-116 colon, with HL-60(TB) leukemia, in the assay on IGROV1 ovarian, in the assay on RXF 393 renal and with SF-295 CNS was above 25 µM throughout. Moreover, the TGI with SN12C renal is above 25 µM; in the assay on SR leukemia it was 16.7 µM; in the assay on U251 CNS, above 25 µM; with UACC-257 melanoma it was above 25 µM.
For the compound `O=C(Cc1ccc(/C=C/C(=O)c2ncc[nH]2)cc1)Nc1ccc(Cl)cc1`, the GI50 in the assay with CCRF-CEM leukemia is 1.08 µM; in the assay with HCT-116 colon, 0.848 µM; with HL-60(TB) leukemia, 3.8 µM; in the assay with IGROV1 ovarian, 3.59 µM; in the assay with RXF 393 renal, 3.05 µM; with SF-295 CNS, 3.33 µM. For the same compound, the GI50 in the assay on SN12C renal is 2.4 µM; in the assay on SR leukemia, 0.798 µM; in the assay on U251 CNS, 1.02 µM; with UACC-257 melanoma it was 7.24 µM. For the same compound, the TGI is above 25 µM in the assay on CCRF-CEM leukemia; 3.41 µM with HCT-116 colon; 21.8 µM with HL-60(TB) leukemia; 15.4 µM in the assay on IGROV1 ovarian; 6.93 µM in the assay with RXF 393 renal; 9.32 µM with SF-295 CNS. The TGI was 6.91 µM with SN12C renal, above 25 µM in the assay on SR leukemia, 3.49 µM in the assay with U251 CNS and 19 µM in the assay on UACC-257 melanoma.
As for `NS(=O)(=O)c1ccc(-n2nc(-c3ccc(Br)cc3)ccc2=O)cc1`, the GI50 with CCRF-CEM leukemia, in the assay with HCT-116 colon, in the assay with HL-60(TB) leukemia, in the assay on IGROV1 ovarian, with RXF 393 renal and in the assay on SF-295 CNS was above 10 µM in each case. Moreover, the GI50 in the assay on SN12C renal was above 10 µM; with SR leukemia it was 8.85 µM; with U251 CNS, above 10 µM; in the assay on UACC-257 melanoma, above 10 µM. Besides, the TGI in the assay on CCRF-CEM leukemia, with HCT-116 colon, with HL-60(TB) leukemia, in the assay with IGROV1 ovarian, with RXF 393 renal and in the assay with SF-295 CNS was above 10 µM in each case. In addition, the TGI in the assay with SN12C renal, in the assay on SR leukemia, in the assay with U251 CNS and in the assay with UACC-257 melanoma was above 10 µM throughout.
As for `CCOC(=O)c1cc(-c2ccc([N+](=O)[O-])cc2)n(-c2ccc(C(=O)O)c(O)c2)c1C`, the GI50 is 2.75 µM in the assay on CCRF-CEM leukemia; 2.78 µM with HCT-116 colon; 4.94 µM in the assay with HL-60(TB) leukemia; 4.42 µM in the assay with IGROV1 ovarian; 5.95 µM with RXF 393 renal; 3.72 µM with SF-295 CNS. The GI50 in the assay with SN12C renal is 6.73 µM; in the assay on SR leukemia it was 9.3 µM; with U251 CNS, 3.61 µM; in the assay with UACC-257 melanoma, 9.2 µM. Further, the TGI in the assay on CCRF-CEM leukemia was above 100 µM; in the assay on HCT-116 colon, 11.6 µM; with HL-60(TB) leukemia, 48.4 µM; in the assay on IGROV1 ovarian, 19.2 µM; in the assay on RXF 393 renal, 20.3 µM; with SF-295 CNS, 19.6 µM. Besides, the TGI with SN12C renal is 22.6 µM; in the assay on SR leukemia, above 100 µM; with U251 CNS it was 14.1 µM; in the assay with UACC-257 melanoma, 22 µM.
Turning to `OC(c1cccc(C(F)(F)F)c1)c1cnccc1NC1CCCCCC1` (stereo not given), the GI50 in the assay with CCRF-CEM leukemia was 2.56 µM; with HCT-116 colon, 1.65 µM; in the assay on HL-60(TB) leukemia, 2.13 µM; in the assay on IGROV1 ovarian, 1.7 µM; in the assay with RXF 393 renal it was 1.44 µM; with SF-295 CNS, 1.52 µM. The GI50 in the assay on SN12C renal was 1.87 µM; with SR leukemia it was 2.2 µM; in the assay on U251 CNS, 1.83 µM; in the assay on UACC-257 melanoma it was 2.36 µM. The TGI in the assay on CCRF-CEM leukemia was found to be 7.98 µM; in the assay with HCT-116 colon, 3.18 µM; with HL-60(TB) leukemia, 4.47 µM; in the assay with IGROV1 ovarian, 3.43 µM; in the assay on RXF 393 renal it was 2.89 µM; in the assay on SF-295 CNS it was 3.06 µM. Further, the TGI with SN12C renal was determined as 4.08 µM; in the assay with SR leukemia, 6.51 µM; in the assay with U251 CNS, 3.43 µM; in the assay with UACC-257 melanoma it was 4.66 µM.
As for `O=C1/C(=C/c2ccccc2)CN(C(=O)Oc2ccc(Cl)cc2)C/C1=C\c1ccccc1`, the TGI came to 6.39 µM in the assay with CCRF-CEM leukemia; 0.593 µM with HCT-116 colon; 4.5 µM in the assay with HL-60(TB) leukemia; 10.2 µM in the assay on IGROV1 ovarian; 4.14 µM in the assay with RXF 393 renal; 5.79 µM in the assay on SF-295 CNS. Also, the TGI is 3.88 µM with SN12C renal, 4.33 µM with SR leukemia, 2.97 µM with U251 CNS and 4.33 µM in the assay on UACC-257 melanoma.
With `CN(C)c1ccc(/C=C2\C[N+](C)(C)C/C(=C\c3ccc(N(C)C)cc3)C2=O)cc1`, the TGI was 38.9 µM in the assay on CCRF-CEM leukemia; 22.5 µM in the assay on HCT-116 colon; 13.1 µM in the assay on HL-60(TB) leukemia; 18 µM with IGROV1 ovarian; above 77.7 µM with RXF 393 renal; above 100 µM with SF-295 CNS. Also, the TGI in the assay on SN12C renal is above 78 µM; with SR leukemia it was 36.6 µM; in the assay with U251 CNS, 25 µM; with UACC-257 melanoma it was 32.4 µM.
As for `CN(C)c1ccc2c(c1)oc(=O)c1ccccc12`, the TGI was determined as 27.9 µM in the assay on CCRF-CEM leukemia; 25.9 µM in the assay on HCT-116 colon; 20.3 µM in the assay on HL-60(TB) leukemia; 36.7 µM in the assay with IGROV1 ovarian; 19.3 µM in the assay on RXF 393 renal; 48.2 µM with SF-295 CNS. For the same compound, the TGI was 25.8 µM in the assay on SN12C renal, 21.5 µM with SR leukemia, 24.3 µM with U251 CNS and 28.3 µM in the assay with UACC-257 melanoma.
For `COc1cc2c(c(O)c1C)C(=O)C(Cl)=CC2=O`, the TGI with CCRF-CEM leukemia turned out to be 16 µM; in the assay on HCT-116 colon it was 22.6 µM; in the assay on HL-60(TB) leukemia, 5.57 µM; with IGROV1 ovarian, 40.2 µM; with RXF 393 renal, 13.1 µM; in the assay on SF-295 CNS, 34.4 µM. Also, the TGI with SN12C renal was found to be 27.6 µM; in the assay with SR leukemia, 4.37 µM; with U251 CNS, 47.3 µM; in the assay on UACC-257 melanoma, 18.7 µM.
As for `CCCCn1/c(=N/C(=S)N(C)C)ss/c1=N\C(=S)N(C)C`, the TGI with CCRF-CEM leukemia, in the assay with HCT-116 colon, in the assay with HL-60(TB) leukemia, in the assay on IGROV1 ovarian, with RXF 393 renal and with SF-295 CNS was above 100 µM throughout. Further, the TGI with SN12C renal, in the assay with SR leukemia, in the assay on U251 CNS and in the assay with UACC-257 melanoma was above 100 µM in each case.
